Test results published in US4962224A, “N-naphthoylglycines as aldose reductase inhibitors” (American Home Products Corporation, priority 1989, dated 1990).
Values joined by “and” are separate entries in the source; they are usually repeats but may differ in a detail not shown here. Identical values can stand only once. Each block holds one compound with its values, some of them ahead of it.

Tests used:
[1] = tested on: dulcitol accumulation; assay: lowering of dulcitol (galactitol) accumulation in tissues of galactosemic rats (Table I, IN VIVO); parameters: species or system rat (Sprague-Dawley); settings: for % Lowering dulcitol accumulation IN VIVO, D: diaphragm; for % Lowering dulcitol accumulation IN VIVO, D / % Lowering dulcitol accumulation IN VIVO, L: galactosemic rats, 4 days; for % Lowering dulcitol accumulation IN VIVO, L: lens
Excerpt: Such experiments are exemplified hereinbelow after the listing of the following general comments pertaining to these experiments:
(a) Four or more groups of six male rats, […], Sprague-Dawley strain, were used. The first group, the control group, was fed a mixture of laboratory chow (rodent Laboratory Chow, Purina) and […] at 20% (w/w %) concentration. […] The test compound was either admixed to the diet or administered by gavage. In experiments involving compound administration in the diet, the average dose administered was calculated from the actual food intake of the animals in each group. The concentration of galactose in the diet of the treated groups was the same as that for the untreated galactosemic group.
(b) After four days, the animals were killed by decapitation. The eyeballs were removed and punctured with a razor blade; the freed lenses were rolled gently on filter paper and weighed. The sciatic nerves were dissected as completely as possible and weighed. Both tissues when frozen can be kept up to two weeks before being analyzed for galactitol.
Only two minor reagent changes were made: (a) the rinsing mixture was an aqueous 5% (w/v) trichloroacetic acid solution and (b) the stock solution was prepared by dissolving 25 mg of dulcitol in 100 mL of an aqueous trichloroacetic acid solution. [N.B.: For each experiment the average value found in the tissue from rats fed the glucose diet was subtracted from the individual values found in the corresponding tissue in galactose-fed rats to obtain the amount of polyol accumulated.]
The figures under L, N, and D represent the percentage decrease of galactitol accumulation in the tissues of the lens, sciatic nerve, and diaphragm, respectively, for treated rats as compared to untreated rats.

[2] = tested on: Sciatic Nerve Polyol Accumulation; assay: Two-Week Streptozocin - Diabetic Rat Model, lowering of sciatic nerve polyol accumulation; assay type: in vivo, rat (Sprague-Dawley); settings: gavage, 14 days, STZ diabetic rats
Excerpt: A second in vivo model examined the effect of the compounds of the present invention on sorbitol accumulation in the tissues of 14-day streptozocin (STZ) (Upjohn) diabetic rats.
In each of the studies male Sprague-Dawley rats from Charles River Labs, Kingston, N.Y., weighing 200 to 250 g, were used. The animals were weighed and observed for 5 days prior to the start of the study.
In each study the rats were randomly assigned by weight into groups of 15 animals except for group I which contained 8 animals. The groups were treated as follows:
Group II: STZ, 110 mg/kg i.p.
Group IV: STZ, 110 mg/kg i.p. followed by various doses of a compound of the present invention given by gavage for 14 days, beginning on the day of induction of diabetes.
Following an overnight fast (water ad lib) the animals in groups II-IV were given by i.p. injection 110 mg STZ per kg body weight. The STZ was dissolved in cold citric acid, 0.03M, pH 4.5 and injected within 5 minutes of being dissolved. Control rats (group I) were injected with buffer only.
Two days after STZ injection plasma glucose levels (from the tail vein) were determined following a 4 hour fast. Excluded from the study were animals whose plasma glucose was below 300 mg/dl.
On the morning of the 14th day following STZ injection the animals were fasted 4 hours prior to sacrificing by decapitation. The blood was collected into heparin containing tubes and placed on ice. Both lenses and sciatic nerves were removed immediately, weighed, frozen, and stored at -20° C. until analyzed for sorbitol. The RBCs were collected by centrifugation, the plasma was removed and the cells were washed once with 10 volumes of cold saline. The washed packed RBCs were divided into 1 mL aliquots, extracted with cold perchloric acid and the acid extracts were stored at -20° C. until analyzed for sorbitol.

[3] = target: T1, aldose reductase (Bos taurus, UniProt P16116); assay: aldose reductase inhibiting effects in vitro (Table I, IN VITRO); assay type: biochemical, bovine (lens); settings: read-out: % Inhibition IN VITRO
T1 construct: preparation of the enzyme from bovine lens; from tissue; host or cells: bovine lens
Excerpt: In the present case the procedure of Hayman and Kinoshita was modified in that the final chromatography step was omitted in the preparation of the enzyme from bovine lens. The results are tabulated in Table I under the heading IN VITRO.

- inhibition at 10 µM ([3]; 10^-5 M): 1%
- inhibition at 1 µM ([3]; 10^-6 M): 0%
SMILES: COc1ccc2c(C(=O)N(C)CC(N)=O)c(F)ccc2c1C(F)(F)F [Example 1, N-[(Aminocarbonyl)methyl]-2-fluoro-6-methoxy-N-methyl-5-(trifluoromethyl)-1-naphthalenecarboxamide]
- results in the sciatic nerve compared with tolrestat ([1]; 10 mg/kg/day versus tolrestat at 9 mg/kg/day, sciatic nerve): comparable results
- % Lowering dulcitol accumulation IN VIVO, D ([1]; 5 mg/kg): 32%
- % Lowering dulcitol accumulation IN VIVO, D ([1]; 10 mg/kg): 53% and 58%
- % Lowering dulcitol accumulation IN VIVO, D ([1]; 12 mg/kg): 52%
- % Lowering dulcitol accumulation IN VIVO, D ([1]; 14 mg/kg): 62%
- % Lowering dulcitol accumulation IN VIVO, D ([1]; 15 mg/kg): 57%
- % Lowering dulcitol accumulation IN VIVO, D ([1]; 19 mg/kg): 63%
- % Lowering dulcitol accumulation IN VIVO, D ([1]; 24 mg/kg): 75%
- % Lowering dulcitol accumulation IN VIVO, L ([1]; 5 mg/kg): N.S.
- % Lowering dulcitol accumulation IN VIVO, L ([1]; 10 mg/kg): N.S.
- % Lowering dulcitol accumulation IN VIVO, L ([1]; 12 mg/kg): N.S.
- % Lowering dulcitol accumulation IN VIVO, L ([1]; 14 mg/kg): N.S.
- % Lowering dulcitol accumulation IN VIVO, L ([1]; 15 mg/kg): N.S.
- % Lowering dulcitol accumulation IN VIVO, L ([1]; 19 mg/kg): N.S.
- % Lowering dulcitol accumulation IN VIVO, L ([1]; 24 mg/kg): N.S.
- % Lowering of Sciatic Nerve Polyol Accumulation, Fructose ([2]; 3 mg/kg): 69%
- % Lowering of Sciatic Nerve Polyol Accumulation, Sorbital ([2]; 3 mg/kg): 50%
- % Lowering of Sciatic Nerve Polyol Accumulation, Fructose ([2]; 6 mg/kg): 87%
- % Lowering of Sciatic Nerve Polyol Accumulation, Sorbital ([2]; 6 mg/kg): 77%
- % Lowering of Sciatic Nerve Polyol Accumulation, Fructose ([2]; 9 mg/kg): 94%
- % Lowering of Sciatic Nerve Polyol Accumulation, Sorbital ([2]; 9 mg/kg): 79%
- % Lowering of Sciatic Nerve Polyol Accumulation, Fructose ([2]; 12 mg/kg): 98%
- % Lowering of Sciatic Nerve Polyol Accumulation, Sorbital ([2]; 12 mg/kg): 78%
- % Lowering of Sciatic Nerve Polyol Accumulation, Fructose ([2]; 20 mg/kg): 105%
- % Lowering of Sciatic Nerve Polyol Accumulation, Sorbital ([2]; 20 mg/kg): 84%

SMILES: COc1ccc2c(C(=S)N(C)CC(=O)O)cccc2c1C(F)(F)F [tolrestat, N-[[6-methoxy-5-(trifluoromethyl)-1-naphthalenyl]thioxomethyl]-N-methylglycine, reference compound]
- % Lowering dulcitol accumulation IN VIVO, L ([1]; 9 mg/kg): N.S.
- % Lowering of Sciatic Nerve Polyol Accumulation, Fructose ([2]; 6 mg/kg): 58%
- % Lowering of Sciatic Nerve Polyol Accumulation, Sorbital ([2]; 6 mg/kg): 53%
